# Legend:
# UACC-62 = test: cells; assay type: cell-based
# Solubility in DMSO = assay type: physicochemical; settings: order SJ-2<SJ-24<SJ-3<SJ-11
# Text: The solubility of the four compounds in DMSO is poor, SJ-2<SJ-24<SJ-3<SJ-11, and therefore it is estimated and this is the reason why the three compounds which have previously proven to be effective against PC-3 cell line by SRB assays are ineffective in this experiment.
# SK-MEL-2 = test: cells; assay type: cell-based; settings: Melanoma SK-MEL-2
# OVCAR-5 = test: cells; assay type: cell-based
# SF-539 = test: cells; assay type: cell-based
# NCI-H522 = test: cells; assay type: cell-based
# COLO 205 = test: cells; assay type: cell-based
# MCF7 = test: cells; assay type: cell-based
# SK-MEL-5 = test: cells; assay type: cell-based
# UACC-257 = test: cells; assay type: cell-based
# T-47D = test: cells; assay type: cell-based
# CAKI-1 = test: cells; assay type: cell-based
# 786-0 = test: cells; assay type: cell-based
# MDA-MB-231/ATCC = test: cells; assay type: cell-based
# NCI/ADR-RES = test: cells; assay type: cell-based
# NCI-H226 = test: cells; assay type: cell-based
# HOP-62 = test: cells; assay type: cell-based
# HOP-92 = test: cells; assay type: cell-based; settings: Non-Small Cell Lung Cancer HOP-92
# A549/ATCC = test: cells; assay type: cell-based
# MDA-MB-468 = test: cells; assay type: cell-based
# DU-145 = test: cells; assay type: cell-based
# SNB-75 = test: cells; assay type: cell-based
# UO-31 = test: cells; assay type: cell-based
# OVCAR-8 = test: cells; assay type: cell-based
# SNB-19 = test: cells; assay type: cell-based
# MDA-MB-435 = test: cells; assay type: cell-based
# CCRF-CEM = test: cells; assay type: cell-based
# HCC-2998 = test: cells; assay type: cell-based
# RXF 393 = test: cells; assay type: cell-based; settings: RXF 393 (Renal Cancer), 10 μM, 48 hours
# RPMI-8226 = test: cells; assay type: cell-based
# MALME-3M = test: cells; assay type: cell-based
# HS 578T = test: cells; assay type: cell-based
# [1] = Homo sapiens, CNS Cancer SF-539
# [2] = Homo sapiens, Breast Cancer MDA-MB-231/ATCC
# [3] = Homo sapiens, Non-Small Cell Lung Cancer HOP-62
# [4] = Homo sapiens, Non-Small Cell Lung Cancer A549/ATCC
# [5] = Homo sapiens, Melanoma MALME-3M
structure (smiles),measurement,setting,value
"CCN(CC)CCNc1nc2ccccc2c2c1-c1ccc(Cl)cc1C2=O [SJ-3, 6-(2-(Diethylamino)ethylamino)-9-chloro-11H-indeno[1,2-c]quinolin-11-one]",GI50,"UACC-62; Homo sapiens, Melanoma UACC-62",14.8 µM
same,CC50,"UACC-62; Homo sapiens, Melanoma UACC-62, read-out: LC50 (the source's name)",6.68 µM
same,TGI,UACC-62; Melanoma UACC-62,3.31 µM
same,growth percentage,"UACC-62; UACC-62 (Melanoma), 10 μM, 48 hours",99.56%
same,solubility in DMSO,Solubility in DMSO,poor
same,GI50,SK-MEL-2; Homo sapiens,37.7 µM
same,CC50,"SK-MEL-2; Homo sapiens, read-out: LC50 (the source's name)",10.4 µM
same,TGI,SK-MEL-2,4.73 µM
same,GI50,"OVCAR-5; Homo sapiens, Ovarian Cancer OVCAR-5",21.5 µM
same,CC50,"OVCAR-5; Homo sapiens, Ovarian Cancer OVCAR-5, read-out: LC50 (the source's name)",6.52 µM
same,growth percentage,"OVCAR-5; OVCAR-5 (Ovarian Cancer), 10 μM, 48 hours",89.34%
same,TGI,OVCAR-5; Ovarian Cancer OVCAR-5,3.32 µM
same,TGI,SF-539; CNS Cancer SF-539,3.15 µM
same,GI50,SF-539; [1],20.9 µM
same,LC50 (concentration giving 50% net cell kill),SF-539; [1],5.86 µM
same,growth percentage,"SF-539; SF-539 (CNS Cancer), 10 μM, 48 hours",85.04%
same,GI50,"NCI-H522; Homo sapiens, Non-Small Cell Lung Cancer NCI-H522",27.6 µM
same,CC50,"NCI-H522; Homo sapiens, Non-Small Cell Lung Cancer NCI-H522, read-out: LC50 (the source's name)",7.23 µM
same,growth percentage,"NCI-H522; NCI-H522 (Non-Small Cell Lung Cancer), 10 μM, 48 hours",77.39%
same,TGI,NCI-H522; Non-Small Cell Lung Cancer NCI-H522,3.80 µM
same,growth percentage,"COLO 205; COLO 205 (Colon Cancer), 10 μM, 48 hours",45.69%
same,GI50,"COLO 205; Homo sapiens, Colon Cancer COLO 205",2.41 µM
same,TGI,MCF7; Breast Cancer MCF7,2.60 µM
same,GI50,"MCF7; Homo sapiens, Breast Cancer MCF7",0.44 µM
same,CC50,"MCF7; Homo sapiens, Breast Cancer MCF7, read-out: LC50 (the source's name)",5.54 µM
same,growth percentage,"MCF7; MCF7 (Breast Cancer), 10 μM, 48 hours",12.70%
same,GI50,"SK-MEL-5; Homo sapiens, Melanoma SK-MEL-5",1.15 µM
same,TGI,SK-MEL-5; Melanoma SK-MEL-5,2.61 µM
same,growth percentage,"SK-MEL-5; SK-MEL-5 (Melanoma), 10 μM, 48 hours",82.51%
same,GI50,"UACC-257; Homo sapiens, Melanoma UACC-257",21.2 µM
same,CC50,"UACC-257; Homo sapiens, Melanoma UACC-257, read-out: LC50 (the source's name)",6.37 µM
same,TGI,UACC-257; Melanoma UACC-257,3.39 µM
same,growth percentage,"UACC-257; UACC-257 (Melanoma), 10 μM, 48 hours",92.18%
same,TGI,T-47D; Breast Cancer T-47D,3.56 µM
same,GI50,"T-47D; Homo sapiens, T47D, Breast Cancer T-47D",17.8 µM
same,CC50,"T-47D; Homo sapiens, T47D, Breast Cancer T-47D, read-out: LC50 (the source's name)",7.19 µM
same,growth percentage,"T-47D; T-47D (Breast Cancer), 10 μM, 48 hours",43.28%
same,growth percentage,"CAKI-1; CAKI-1 (Renal Cancer), 10 μM, 48 hours",64.35%
same,GI50,"CAKI-1; Homo sapiens, Renal Cancer CAKI-1",14.8 µM
same,CC50,"CAKI-1; Homo sapiens, Renal Cancer CAKI-1, read-out: LC50 (the source's name)",6.8 µM
same,TGI,CAKI-1; Renal Cancer CAKI-1,3.26 µM
same,growth percentage,"786-0; 786-0 (Renal Cancer), 10 μM, 48 hours",74.13%
same,GI50,"786-0; Homo sapiens, 786-0, Renal Cancer 786-O",26.8 µM
same,CC50,"786-0; Homo sapiens, 786-0, Renal Cancer 786-O, read-out: LC50 (the source's name)",6.01 µM
same,TGI,786-0; Renal Cancer 786-O,3.29 µM
same,TGI,MDA-MB-231/ATCC; Breast Cancer MDA-MB-231/ATCC,2.71 µM
same,GI50,MDA-MB-231/ATCC; [2],2.23 µM
same,LC50 (concentration giving 50% net cell kill),MDA-MB-231/ATCC; [2],5.7 µM
same,growth percentage,"MDA-MB-231/ATCC; MDA-MB-231/ATCC (Breast Cancer), 10 μM, 48 hours",25.16%
same,GI50,"NCI/ADR-RES; Homo sapiens, Ovarian Cancer NCI/ADR-RES",19.3 µM
same,CC50,"NCI/ADR-RES; Homo sapiens, Ovarian Cancer NCI/ADR-RES, read-out: LC50 (the source's name)",7.41 µM
same,growth percentage,"NCI/ADR-RES; NCI/ADR-RES (Ovarian Cancer), 10 μM, 48 hours",69.55%
same,TGI,NCI/ADR-RES; Ovarian Cancer NCI/ADR-RES,3.67 µM
same,GI50,"NCI-H226; Homo sapiens, Non-Small Cell Lung Cancer NCI-H226",1.88 µM
same,growth percentage,"NCI-H226; NCI-H226 (Non-Small Cell Lung Cancer), 10 μM, 48 hours",80.86%
same,growth percentage,"HOP-62; HOP-62 (Non-Small Cell Lung Cancer), 10 μM, 48 hours",24.86%
same,GI50,HOP-62; [3],4.51 µM
same,LC50 (50% lethal concentration),HOP-62; [3],5.74 µM
same,TGI,HOP-62; Non-Small Cell Lung Cancer HOP-62,2.83 µM
same,GI50,HOP-92; Homo sapiens,3.08 µM
same,LC50,HOP-92; Homo sapiens,25.1 µM
same,TGI,HOP-92,5.80 µM
same,growth percentage,"A549/ATCC; A549/ATCC (Non-Small Cell Lung Cancer), 10 μM, 48 hours",51.79%
same,GI50,A549/ATCC; [4],15.2 µM
same,LC50 (50% lethal concentration),A549/ATCC; [4],6.72 µM
same,TGI,A549/ATCC; Non-Small Cell Lung Cancer A549/ATCC,3.51 µM
same,TGI,MDA-MB-468; Breast Cancer MDA-MB-468,3.07 µM
same,GI50,"MDA-MB-468; Homo sapiens, Breast Cancer MDA-MB-468",1.71 µM
same,growth percentage,"MDA-MB-468; MDA-MB-468 (Breast Cancer), 10 μM, 48 hours",33.81%
same,growth percentage,"DU-145; DU-145 (Prostate Cancer), 10 μM, 48 hours",65.48%
same,GI50,"DU-145; Homo sapiens, Prostate Cancer DU-145",18.8 µM
same,CC50,"DU-145; Homo sapiens, Prostate Cancer DU-145, read-out: LC50 (the source's name)",5.43 µM
same,TGI,DU-145; Prostate Cancer DU-145,2.94 µM
same,TGI,SNB-75; CNS Cancer SNB-75,2.35 µM
same,GI50,"SNB-75; Homo sapiens, CNS Cancer SNB-75",3.25 µM
same,CC50,"SNB-75; Homo sapiens, CNS Cancer SNB-75, read-out: LC50 (the source's name)",4.86 µM
same,growth percentage,"SNB-75; SNB-75 (CNS Cancer), 10 μM, 48 hours",71.52%
same,GI50,"UO-31; Homo sapiens, Renal Cancer UO-31",3.61 µM
same,CC50,"UO-31; Homo sapiens, Renal Cancer UO-31, read-out: LC50 (the source's name)",6.48 µM
same,TGI,UO-31; Renal Cancer UO-31,2.88 µM
same,growth percentage,"UO-31; UO-31 (Renal Cancer), 10 μM, 48 hours",25.86%
same,GI50,"OVCAR-8; Homo sapiens, Ovarian Cancer OVCAR-8",13.8 µM
same,CC50,"OVCAR-8; Homo sapiens, Ovarian Cancer OVCAR-8, read-out: LC50 (the source's name)",7.76 µM
same,growth percentage,"OVCAR-8; OVCAR-8 (Ovarian Cancer), 10 μM, 48 hours",61.36%
same,TGI,OVCAR-8; Ovarian Cancer OVCAR-8,3.63 µM
same,TGI,SNB-19; CNS Cancer SNB-19,3.42 µM
same,GI50,"SNB-19; Homo sapiens, CNS Cancer SNB-19",18.2 µM
same,growth percentage,"SNB-19; SNB-19 (CNS Cancer), 10 μM, 48 hours",94.02%
same,GI50,"MDA-MB-435; Homo sapiens, Melanoma MDA-MB-435",20.2 µM
same,CC50,"MDA-MB-435; Homo sapiens, Melanoma MDA-MB-435, read-out: LC50 (the source's name)",7.62 µM
same,growth percentage,"MDA-MB-435; MDA-MB-435 (Melanoma), 10 μM, 48 hours",92.72%
same,TGI,MDA-MB-435; Melanoma MDA-MB-435,3.86 µM
same,growth percentage,"CCRF-CEM; CCRF-CEM (Leukemia), 10 μM, 48 hours",42.00%
same,GI50,"CCRF-CEM; Homo sapiens, Leukemia CCRF-CEM",8.24 µM
same,CC50,"CCRF-CEM; Homo sapiens, Leukemia CCRF-CEM, read-out: LC50 (the source's name)",7.8 µM
same,TGI,CCRF-CEM; Leukemia CCRF-CEM,3.50 µM
same,TGI,HCC-2998; Colon Cancer HCC-2998,4.08 µM
same,growth percentage,"HCC-2998; HCC-2998 (Colon Cancer), 10 μM, 48 hours",88.65%
same,GI50,"HCC-2998; Homo sapiens, Colon Cancer HCC-2998",> 100 µM
same,CC50,"HCC-2998; Homo sapiens, Colon Cancer HCC-2998, read-out: LC50 (the source's name)",7.94 µM
same,growth percentage,RXF 393,51.90%
same,GI50,"RPMI-8226; Homo sapiens, Leukemia RPMI-8226",20.2 µM
same,CC50,"RPMI-8226; Homo sapiens, Leukemia RPMI-8226, read-out: LC50 (the source's name)",9.73 µM
same,TGI,RPMI-8226; Leukemia RPMI-8226,4.31 µM
same,growth percentage,"RPMI-8226; RPMI-8226 (Leukemia), 10 μM, 48 hours",81.94%
same,GI50,MALME-3M; [5],17.3 µM
same,LC50 (concentration killing 50% of cells),MALME-3M; [5],7.46 µM
same,growth percentage,"MALME-3M; MALME-3M (Melanoma), 10 μM, 48 hours",52.55%
same,TGI,MALME-3M; Melanoma MALME-3M,3.83 µM
same,TGI,HS 578T; Breast Cancer HS 578T,10.00 µM
same,growth percentage,"HS 578T; HS 578T (Breast Cancer), 10 μM, 48 hours",84.70%
same,GI50,"HS 578T; Homo sapiens, Breast Cancer HS 578T",19.3 µM
same,CC50,"HS 578T; Homo sapiens, Breast Cancer HS 578T, read-out: LC50 (the source's name)",46.1 µM

# From patent publication US20150197492A1, “NOVEL INDENO[1,2-c]QUINOLIN-11-ONE DERIVATIVES, PREPARATION METHOD AND APPLICATION THEREOF” (National Defense Medical Center, priority 2014, published 2015)
